Values belong to the molecule of their own block, whether it stands above or below them. Active and inactive are the calls of the source.
Legend:
Trypsin = Trypsin (Sus scrofa, UniProt P00761); assay: porcine trypsin inhibitors, dose response, selectivity assay for Rce1 protease inhibitor project, biochemical, quenched peptide fluorescence, cherry-pick (AID 488789)
[1] = molecular target: Melanin-concentrating hormone receptor 1 (Homo sapiens, UniProt Q99705); assay: Late-stage fluorescence-based counterscreen for antagonists of the G-protein coupled receptor 7 (GPR7): cell-based dose response assay to identify antagonists of the melanin-concentrating hormone receptor 1 (MCHR1). [Related pubchem assays (depositor defined):AID1861, AID1880, AID1952, AID2148, AID2251, AID2257, AID485339]; type: functional;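 further: stimulated with 30 nM MCH peptide agonist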
Melanin-concentrating hormone receptor 1, sequence (Q99705 whole entry): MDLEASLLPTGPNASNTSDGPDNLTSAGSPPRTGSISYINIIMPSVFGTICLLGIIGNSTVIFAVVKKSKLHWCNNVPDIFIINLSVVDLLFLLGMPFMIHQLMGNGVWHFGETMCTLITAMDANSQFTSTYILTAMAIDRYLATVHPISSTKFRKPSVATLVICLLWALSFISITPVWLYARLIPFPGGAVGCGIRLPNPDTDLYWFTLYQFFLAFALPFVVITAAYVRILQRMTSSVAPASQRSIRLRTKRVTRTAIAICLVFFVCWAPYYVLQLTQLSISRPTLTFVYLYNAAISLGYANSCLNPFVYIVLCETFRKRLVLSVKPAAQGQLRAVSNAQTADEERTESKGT

[2] = molecular target: T1, Neuropeptides B/W receptor type 1 (Homo sapiens, UniProt P48145); assay: GPR7 antagonist potency, late-stage follow-up, cell-based, fluorescence, dose response (AID 463251); type: functional
T1 sequence (P48145 whole entry): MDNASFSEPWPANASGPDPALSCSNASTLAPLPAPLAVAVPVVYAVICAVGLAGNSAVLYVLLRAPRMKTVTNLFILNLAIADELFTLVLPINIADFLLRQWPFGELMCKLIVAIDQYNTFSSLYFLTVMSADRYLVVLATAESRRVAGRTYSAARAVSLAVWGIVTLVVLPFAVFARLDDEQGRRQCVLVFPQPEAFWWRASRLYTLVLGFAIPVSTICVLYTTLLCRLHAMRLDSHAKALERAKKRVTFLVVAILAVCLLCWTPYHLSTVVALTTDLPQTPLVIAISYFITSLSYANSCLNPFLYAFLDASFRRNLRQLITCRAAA

[3] = molecular target: Phosphoethanolamine/phosphocholine phosphatase (Homo sapiens, UniProt Q8TCT1); assay: SAR assay for compounds that inhibit PHOSPHO1. [Related pubchem assays (depositor defined):AID1545, AID1565, AID1574]
Phosphoethanolamine/phosphocholine phosphatase, sequence (Q8TCT1 whole entry): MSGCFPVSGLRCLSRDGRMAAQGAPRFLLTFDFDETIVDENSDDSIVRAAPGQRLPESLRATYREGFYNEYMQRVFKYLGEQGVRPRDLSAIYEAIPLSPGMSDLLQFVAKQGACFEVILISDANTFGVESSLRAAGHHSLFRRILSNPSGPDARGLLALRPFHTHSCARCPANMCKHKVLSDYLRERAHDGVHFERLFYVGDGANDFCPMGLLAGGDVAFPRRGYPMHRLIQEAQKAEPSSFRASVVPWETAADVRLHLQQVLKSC

[4] = molecular target: T2, Mannose-6-phosphate isomerase (Homo sapiens, UniProt P34949); assay: PMI enzyme inhibitors, confirmation, biochemical, fluorescence intensity (AID 1535)
T2 sequence (P34949 whole entry): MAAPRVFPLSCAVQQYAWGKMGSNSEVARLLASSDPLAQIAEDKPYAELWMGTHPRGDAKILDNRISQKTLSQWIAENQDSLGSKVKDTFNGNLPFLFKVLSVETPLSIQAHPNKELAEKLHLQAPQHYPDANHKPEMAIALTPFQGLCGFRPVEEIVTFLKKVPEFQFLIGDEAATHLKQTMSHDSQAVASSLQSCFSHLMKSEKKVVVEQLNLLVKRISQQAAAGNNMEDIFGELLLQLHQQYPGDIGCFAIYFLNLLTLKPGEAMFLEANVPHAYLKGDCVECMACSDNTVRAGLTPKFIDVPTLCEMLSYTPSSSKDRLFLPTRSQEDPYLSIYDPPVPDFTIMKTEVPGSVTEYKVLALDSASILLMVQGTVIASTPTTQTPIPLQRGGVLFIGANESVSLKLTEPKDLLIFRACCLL

Phosphomannomutase 2 = Phosphomannomutase 2 (Homo sapiens, UniProt O15305); assay: Counter screen SAR assay for PMM2 inhibitors via a fluorescence intensity assay. [Related pubchem assays (depositor defined):AID1545, AID1574]
Phosphomannomutase 2, sequence (O15305 whole entry): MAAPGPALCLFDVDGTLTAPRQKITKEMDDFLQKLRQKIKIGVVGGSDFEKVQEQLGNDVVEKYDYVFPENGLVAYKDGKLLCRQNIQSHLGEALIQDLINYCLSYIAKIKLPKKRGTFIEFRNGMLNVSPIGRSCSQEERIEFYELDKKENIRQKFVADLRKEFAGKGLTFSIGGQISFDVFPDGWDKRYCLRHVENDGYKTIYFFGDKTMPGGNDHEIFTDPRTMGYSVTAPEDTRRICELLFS

Trypsin, sequence (P00761 whole entry): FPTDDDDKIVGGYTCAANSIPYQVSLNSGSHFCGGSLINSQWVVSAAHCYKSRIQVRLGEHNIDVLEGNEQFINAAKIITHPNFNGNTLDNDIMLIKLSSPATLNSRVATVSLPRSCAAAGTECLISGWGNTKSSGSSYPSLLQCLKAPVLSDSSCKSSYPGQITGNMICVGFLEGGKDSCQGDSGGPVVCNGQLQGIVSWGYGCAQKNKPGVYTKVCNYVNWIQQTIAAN

AC50 (Trypsin): 67.6 µM (active)
Structure (SMILES): Cc1ccc(C(=O)N2N=C(c3ccccc3O)CC2c2ccccc2)cc1 (stereo unspecified)

IC50 [1]: 4.7 µM (active) | IC50 [2]: 1 µM (active)
Structure (SMILES): COc1ccc(Oc2c(Cl)cnn(-c3ccc(I)cc3)c2=O)cc1

IC50 [3]: 0.359 µM (active) | IC50 [4]: > 50 µM (inactive) | IC50 (Phosphomannomutase 2): > 100 µM (inactive)
Structure (SMILES): O=c1c2ccc(F)cc2sn1-c1cccc(Cl)c1Cl
